In patent publication US8865623B2, “Herbicidally active cyclic diones and derivatives thereof, processes for their preparation, compositions, and method of controlling weeds” (Syngenta Limited, priority 2009, dated 2014):

How the values were obtained:
Format in all cases: in vivo
[1] = system: Alopecurus myosuroides (ALOMY); experiment: Pre-emergence herbicidal activity, glasshouse pot test; details: Alopecurus myosuroides, 312 h, Rate 250 g/ha, evaluated after 13 days, read-out: Pre-emergence activity ALOMY (100=total damage to plant; 0=no damage to plant)
Procedure, shortened: (§1)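 Seeds sown in standard soil in pots were sprayed 1 day after sowing (pre-emergence) or after 8 days' cultivation (post-emergence) with aqueous spray from acetone/water (50:50) formulation containing 0.5% Tween 20. Plants grew at 24/16° C day/night, 14 h light, 65% humidity, watered twice daily. Damage scored after 13 days, 0–100.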

Avena fatua (AVEFA) [2] = experiment: as above; details: Avena fatua, 312 h, Rate 250 g/ha, evaluated after 13 days, read-out: Pre-emergence activity AVEFA (100=total damage to plant; 0=no damage to plant)
Procedure, shortened: as §1

[3] = system: Echinochloa crus-galli (ECHCG); experiment: as above; details: Echinochloa crus-galli, 312 h, Rate 250 g/ha, evaluated after 13 days, read-out: Pre-emergence activity ECHCG (100=total damage to plant; 0=no damage to plant)
Procedure, shortened: as §1

Lolium perenne (LOLPE) [4] = experiment: as above; details: Lolium perenne, 312 h, Rate 250 g/ha, evaluated after 13 days, read-out: Pre-emergence activity LOLPE (100=total damage to plant; 0=no damage to plant)
Procedure, shortened: as §1

[5] = system: Alopecurus myosuroides (ALOMY); experiment: Post-emergence herbicidal activity, glasshouse pot test; details: Alopecurus myosuroides, 312 h, rate 250 g/ha, evaluated after 13 days, read-out: Post-emergence activity ALOMY (100=total damage to plant; 0=no damage to plant)
Procedure, shortened: as §1

Avena fatua (AVEFA) [6] = experiment: as above; details: Avena fatua, 312 h, rate 250 g/ha, evaluated after 13 days, read-out: Post-emergence activity AVEFA (100=total damage to plant; 0=no damage to plant)
Procedure, shortened: as §1

[7] = system: Echinochloa crus-galli (ECHCG); experiment: as above; details: Echinochloa crus-galli, 312 h, rate 250 g/ha, evaluated after 13 days, read-out: Post-emergence activity ECHCG (100=total damage to plant; 0=no damage to plant)
Procedure, shortened: as §1

Lolium perenne (LOLPE) [8] = experiment: as above; details: Lolium perenne, 312 h, rate 250 g/ha, evaluated after 13 days, read-out: Post-emergence activity LOLPE (100=total damage to plant; 0=no damage to plant)
Procedure, shortened: as §1

Structure (SMILES) | pest or weed control at 250 g/ha ([1]; pre-emergence) | pest or weed control at 250 g/ha (Avena fatua (AVEFA) [2]; pre-emergence) | pest or weed control at 250 g/ha ([3]; pre-emergence) | pest or weed control at 250 g/ha (Lolium perenne (LOLPE) [4]; pre-emergence) | pest or weed control at 250 g/ha [5] | pest or weed control at 250 g/ha (Avena fatua (AVEFA) [6]) | pest or weed control at 250 g/ha [7] | pest or weed control at 250 g/ha (Lolium perenne (LOLPE) [8]) | pest or weed control at 250 g/ha ([1]; pre-emergence spray) | pest or weed control at 250 g/ha (Avena fatua (AVEFA) [2]; pre-emergence spray) | pest or weed control at 250 g/ha ([3]; pre-emergence spray) | pest or weed control at 250 g/ha (Lolium perenne (LOLPE) [4]; pre-emergence spray) | pest or weed control at 250 g/ha ([5]; glasshouse) | pest or weed control at 250 g/ha (Avena fatua (AVEFA) [6]; glasshouse) | pest or weed control at 250 g/ha ([7]; glasshouse) | pest or weed control at 250 g/ha (Lolium perenne (LOLPE) [8]; glasshouse)
CC1(C)OC(C)(C)C(O)=C(c2cc(Oc3ccc(Cl)c(F)c3)ccc2C2CC2)C1=O [Example A-347] | 70% | 10% | 100% | 100% | 90% | 50% | 100% | 100% |  |  |  |  |  |  |  | 
CCc1ccc(Oc2cnc3cc(Cl)ccc3n2)cc1C1=C(O)CC(C)(C)CC1=O [Example A-82] |  |  |  |  |  |  |  |  | 70% | 90% | 100% | 100% | 100% | 100% | 100% | 90%
CCc1ccc(Oc2ccc(Cl)cc2)cc1C1=C(O)[C@@H]2CC[C@](C)(C1=O)C2(C)C (single isomer, unassigned) [Example A-96] |  |  |  |  |  |  |  |  | 70% | 40% | 90% | 100% | 60% | 20% | 60% | 30%
CCc1ccc(Oc2ccc(OC(F)(F)F)cc2)cc1C1=C(O)[C@H]2CC[C@H](C2)C1=O [Example A-248] |  |  |  |  |  |  |  |  | 90% | 80% | 100% | 100% | 100% | 100% | 100% | 100%
CCc1ccc(Oc2ccc(Cl)c(F)c2)cc1C1=C(O)CC(C)(C)CC1=O [Example A-46] |  |  |  |  |  |  |  |  | 100% | 30% | 90% | 70% | 80% | 50% | 100% | 60%
CCc1ccc(Oc2nc3ccc(C)cc3s2)cc1C1=C(O)C(C)(C)OC(C)(C)C1=O [Example A-168] |  |  |  |  |  |  |  |  | 60% | 10% | 70% | 80% | 90% | 20% | 90% | 90%
CCc1ccc(Oc2cccc(C(F)(F)F)n2)cc1C1=C(O)C(C)(C)OC(C)(C)C1=O [Example A-53] |  |  |  |  |  |  |  |  | 0% | 0% | 20% | 40% | 0% | 0% | 80% | 30%
CCc1ccc(Oc2cccc(Br)c2)cc1C1=C(O)C(C)(C)OC(C)(C)C1=O [Example A-32] |  |  |  |  |  |  |  |  | 30% | 20% | 90% | 80% | 30% | 20% | 100% | 40%
CCc1ccc(Oc2ccc(C#N)c(F)c2)cc1C1=C(O)C(C)(C)OC(C)(C)C1=O [Example A-116] |  |  |  |  |  |  |  |  | 0% | 0% | 20% | 20% | 80% | 30% | 100% | 40%
CCc1ccc(Oc2ccc(C#N)c(Cl)c2)cc1C1=C(O)[C@@H]2CC[C@](C)(C1=O)C2(C)C [Example A-313] |  |  |  |  |  |  |  |  | 80% | 70% | 100% | 100% | 90% | 90% | 100% | 80%
CCc1ccc(Oc2cnc3cc(F)ccc3n2)cc1C1=C(O)C(C)(C)OC(C)(C)C1=O [Example A-172] |  |  |  |  |  |  |  |  | 90% | 60% | 100% | 100% | 100% | 100% | 100% | 100%
CCCc1cnc(Oc2ccc(CC)c(C3=C(O)C(C)(C)OC(C)(C)C3=O)c2)nc1 [Example A-128] |  |  |  |  |  |  |  |  | 20% | 10% | 50% | 60% | 50% | 30% | 70% | 40%
CCc1ccc(Oc2ccc(C(F)(F)F)cc2Cl)cc1C1=C(O)CC(C)(C)CC1=O [Example A-281] |  |  |  |  |  |  |  |  | 70% | 0% | 100% | 80% | 90% | 80% | 100% | 60%
CCc1ccc(Oc2cnc3ccccc3n2)cc1C1=C(O)CC2(CCOCC2)CC1=O [Example A-307] |  |  |  |  |  |  |  |  | 100% | 70% | 100% | 90% | 100% | 100% | 100% | 100%
CCc1ccc(Oc2ccc(C#N)cc2)cc1C1=C(O)C(C)(C)OC(C)(C)C1=O [Example A-79] |  |  |  |  |  |  |  |  | 80% | 80% | 100% | 90% | 100% | 60% | 100% | 80%
CCc1ccc(Oc2ccc(C#N)c(C(F)(F)F)c2)cc1C1=C(O)C(C)(C)OC(C)(C)C1=O [Example A-76] |  |  |  |  |  |  |  |  | 70% | 80% | 100% | 60% | 80% | 70% | 100% | 70%
CCc1ccc(Oc2ccc(Br)cc2Cl)cc1C1=C(O)CC2(CCOCC2)CC1=O [Example A-189] |  |  |  |  |  |  |  |  | 50% | 40% | 90% | 60% | 90% | 100% | 100% | 90%
CCc1ccc(Oc2ccc(Cl)cc2Cl)cc1C1=C(O)[C@@H]2CC[C@](C)(C1=O)C2(C)C (single isomer, unassigned) [Example A-94] |  |  |  |  |  |  |  |  | 40% | 20% | 90% | 100% | 10% | 0% | 40% | 20%
CCc1ccc(Oc2ccc(C#N)cc2F)cc1C1=C(O)CC(C)(C)CC1=O [Example A-87] |  |  |  |  |  |  |  |  | 30% | 20% | 60% | 40% | 70% | 40% | 80% | 40%
